Data taken from patent US20180325947A1, “USE OF MAPK INHIBITORS TO REDUCE LOSS OF HEMATOPOIETIC STEM CELLS DURING EX VIVO CULTURE AND/OR GENETIC MANIPULATION” (Children's Hospital Medical Center, priority 2015, published 2018).

Columns and labels:
Format in all cases: cell-based
[1] = tested on: human CD34+ 38- 90+ HSC enriched population; experiment: DNA damage response (gamma-H2AX, 53BP1) by immunofluorescence and flow cytometry
Method: Human MPB derived CD34^+ cells were cultured and transduced with lentivirus (LV) or retrovirus (RV) for the indicated time points. Representative Immunofluorescence images of sorted human CD34^+ 38^− 90^+ population treated with or without p38i for 72 hours stained with anti-γH2AX and 53BP1 (Panel A) and quantification of γ-H2AX (Panel B) and 53BP1 (Panel C) MFI/cell. Panel D: Representative histogram plot from flow cytometric analysis of CD34^+ 38^− 90^+ HSC enriched cells stained for γ-H2AX with or without p38 inhibitor (p38i) and quantification of fold change in mean fluorescence intensity (MFI) of γ-H2AX in HSCs (Panel E) and percent GH2AX^+ cells (Panel F) at indicated time period. Percentage shown in histograms are cells positive for γH2AX and the numbers below is mean fluorescent intensity (MFI) (n=5 independent experiments). FACS plot representing HSCs in G0 (Quiescent), G1, and S-G2-M phase of cell cycle with or without p38i (Panel G) and quantification (Panel H) of HSC enriched population at different cell cycle phase at indicated time of ex vivo culture. Percentage of (±SEM) Ki67^− (G0) and Ki67^+ (G1-S-G2-M) HSCs is depicted on the y-axis. (n=4 independent experiments for 24 h LV and n=5 independent experiments for 42 h LV and 72 h RV)). Statistics: paired Student's t test, *p<0.05, **p<0.01, ***p<0.001.
Human MPB derived CD34^+ cells were cultured and transduced as described in FIG. 17. Panel A: Quantification of γ-H2AX^+ CD34^+ 38^− 90^+ cells at 24, 42, & 72 hours. n=5-8 independent experiments/condition). Panel B: Quantification of immunofluorescence analysis for γ-H2AX (left) and 53BP1 (right) MFI per sorted human CD34^+ 38^− 90^+ cell with or without p38i for 42 hours. Panel C: Quantitative plot representing CD34^+ 38^− 90^+ cells in G0-G1, and S-G2-M phase of cell cycle with or without p38i at 42 hours of ex vivo culture and lentivirus (LV) transduction. (n=6 independent experiments/condition). Statistics: paired Student's t test, *p<0.05, **p<0.01, ***p<0.001. Statistics: Student's t test, *p<0.05, **p<0.01, ***p<[…].
Human BM derived CD34 cells were cultured and transduced with lentivirus (LV) for 48 hours. Representative FACS plot representing bone marrow derived HSC enriched CD34^+ 38^− 90^+ population in G0 (Quiescent), G1, and S-G2-M phase of cell cycle with or without p38i (left) and the corresponding representative histogram plot of γH2AX at indicated time and treatment. Percentage shown in histogram refers to cells positive for γH2AX and the numbers below is mean fluorescent intensity (MFI).
p38 inhibition maintains the quiescent phase of HSCs and reduces DNA damage response (DDR) early in culture. Cell cycle entry and gene manipulation induces a DDR in human HSCs that is reduced by inhibiting p38MAPK early in culture. DNA double-strand breaks in Human HSCs were assessed by γ-H2AX staining, a sensitive and specific indicator of DNA double-strand breaks.

[2] = tested on: human HSCs (CD34+ 38- 90+ 45RA- 49f+); experiment: percent phenotypic hHSC in ex vivo cultured CD34+ cells, flow cytometry; conditions: for percent hHSCs ex vivo in culture: ex vivo culture up to 72 hours
Method: Four different p38 inhibitors all increase the percent hHSCs ex vivo in culture studies up to 72 hours.
(§1) Human CD34^+ cells were cultured and transduced as described in FIG. 13, panel A. Harvested cells were stained with trypan blue for viability, total CD34+ cell number (Panel A), fold change in percent human CD34^+ 38^− 90^+ 45RA^− 49f^+ (HSCs) (Panel B), percent annexin V^+ (apoptotic) CD34^+38^− 90^+ cells (Panel C), fold change in transduction efficiency (based on GFP marker percentage) over non-treated CD34^+38^− 90^+ cells (Panel D), fold change in MitoSOX MFI in CD34^+38^− 90^+ cells are shown (Panel E). Data represents mean±SEM. Statistics: Student's t test, […], *p<0.05, **p<0.01, ***p<0.001.

human CD34+ cells = experiment: total CD34+ cell number / viability, trypan blue; conditions: with or without p38i
Method: as §1

Structure (SMILES): Cc1ccc(-n2nc(C(C)(C)C)cc2NC(=O)Nc2ccc(OCCN3CCOCC3)c3ccccc23)cc1 [BIRB-796, 1-[5-tert-butyl-2-(4-methylphenyl)pyrazol-3-yl]-3-[4-(2-morpholin-4-ylethoxy)naphthalen-1-yl]urea]
- percentage of γH2AX+ cells ([1]; 36-42 h and 72-96 h groups): significantly reduced
- γH2AX staining ([1]; 24 hours of culture, flow cytometry): returned to levels seen in unmanipulated HSC
- DNA Damage Response (DDR) ([1]; MPB derived CD34+ 38- 90+ cells, ex vivo culture and gene transfer): reduces
- DNA Damage Response (DDR) ([1]; bone marrow (BM) derived CD34+ 38- 90+ cells, LV 48 hours): reduces
- γH2AX foci (DNA damage response) ([1]; cultured and transduced for 36-42 hours or 72 hours): rescued
- human HSCs in vitro ([2]; at 400, 600 and 800 nm concentrations): appeared to increase
- percent hHSCs ex vivo in culture [2]: significant increase
- percent hHSCs ex vivo in culture ([2]; listed as p38i): increased
- loss of stem cells during in vitro or ex vivo culture ([2]; stem cells having undergone genetic manipulation that induces a DNA double strand break): successfully reduced
- total number of CD34+ cells or their viability (human CD34+ cells): no significant change
